Data reported in PubChem BioAssay AID1963983 (Molecular Pharmacology Branch, DTP, NCI, 2024).
Values joined by “and” are separate entries in the source; they are usually repeats but may differ in a detail not shown here. Identical values can stand only once. Each block holds one compound with its values, some of them ahead of it.

Tested on: 186277-243-T-J2-PDC multi-cell spheroid viability
Experiment: Anticancer human tumor 186277-243-T-J2-PDC patient-derived colon adenocarcinoma cell line growth inhibition [PI3K]
Details: for viability, T/C: stronger effect = lower value
How it was run: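 Stroma-containing spheroids: tumor line, pooled-donor HUVEC, hMSC. Treatments: targeted agents with PI3K inhibitors. Dosing: clinically relevant, half-log spacing, 10 microM ceiling without known Cmax. Read-out: cell viability.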

[1] = curve of first compound, second compound 0.00316 µM
[2] = curve of first compound, second compound 0.01 µM
[3] = curve of first compound, second compound 0.0316 µM
[4] = curve of first compound, second compound 0.1 µM
[5] = curve of first compound, second compound 0.316 µM
[6] = curve of first compound, second compound 1 µM
[7] = second compound 0.00316 µM, first compound 0.0316 µM
[8] = second compound 0.00316 µM, first compound 0.1 µM
[9] = second compound 0.00316 µM, first compound 0.316 µM
[10] = second compound 0.00316 µM, first compound 1 µM
[11] = second compound 0.00316 µM, first compound 3.16 µM
[12] = second compound 0.00316 µM, first compound 10 µM
[13] = second compound 0.01 µM, first compound 0.0316 µM
[14] = second compound 0.01 µM, first compound 0.1 µM
[15] = second compound 0.01 µM, first compound 0.316 µM
[16] = second compound 0.01 µM, first compound 1 µM
[17] = second compound 0.01 µM, first compound 3.16 µM
[18] = second compound 0.01 µM, first compound 10 µM
[19] = second compound 0.0316 µM, first compound 0.0316 µM
[20] = second compound 0.0316 µM, first compound 0.1 µM
[21] = second compound 0.0316 µM, first compound 0.316 µM
[22] = second compound 0.0316 µM, first compound 1 µM
[23] = second compound 0.0316 µM, first compound 3.16 µM
[24] = second compound 0.0316 µM, first compound 10 µM
[25] = second compound 0.1 µM, first compound 0.0316 µM
[26] = second compound 0.1 µM, first compound 0.1 µM
[27] = second compound 0.1 µM, first compound 0.316 µM
[28] = second compound 0.1 µM, first compound 1 µM
[29] = second compound 0.1 µM, first compound 3.16 µM
[30] = second compound 0.1 µM, first compound 10 µM
[31] = second compound 0.316 µM, first compound 0.0316 µM
[32] = second compound 0.316 µM, first compound 0.1 µM
[33] = second compound 0.316 µM, first compound 0.316 µM
[34] = second compound 0.316 µM, first compound 1 µM
[35] = second compound 0.316 µM, first compound 3.16 µM
[36] = second compound 0.316 µM, first compound 10 µM
[37] = second compound 1 µM, first compound 0.0316 µM
[38] = second compound 1 µM, first compound 0.1 µM
[39] = second compound 1 µM, first compound 0.316 µM
[40] = second compound 1 µM, first compound 1 µM
[41] = second compound 1 µM, first compound 3.16 µM
[42] = second compound 1 µM, first compound 10 µM
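Also: spheroids exposed to compounds for seven days before viability reading.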
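For viability, T/C in this document: 100% = DMSO vehicle control viability.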

Compound: CC(C)n1nc(-c2ccc3oc(N)nc3c2)c2c(N)ncnc21
- viability, T/C (compound 0.000316 µM): 98% [middle of 4 runs]
- viability, T/C (compound 0.001 µM): 96.1% [middle of 4 runs]
- viability, T/C (compound 0.00316 µM): 99.7% [middle of 4 runs]
- viability, T/C (compound 0.0316 µM): 78.8% [middle of 4 runs]
- viability, T/C (compound 0.1 µM): 29.6% and 31.3% (2×) and 27.9%
- IC50 (curve of compound): 63.7 nM [middle of 4 runs]

Compound: Cn1ncc(Cl)c1-c1cc(C(=O)NC(CN)Cc2cccc(F)c2)sc1Cl (stereo unspecified)
- viability, T/C (compound 0.0316 µM): 89.1% [middle of 4 runs]
- viability, T/C (compound 0.1 µM): 85% [middle of 4 runs]
- viability, T/C (compound 0.316 µM): 60.5% [middle of 4 runs]
- viability, T/C (compound 1 µM): 45.4% [middle of 4 runs]
- viability, T/C (compound 3.16 µM): 46.1% [middle of 4 runs]
- viability, T/C (compound 10 µM): 19.8% [middle of 4 runs]
- IC50 (curve of compound): 1.17 µM [middle of 4 runs]

Compound: C#Cc1c(F)ccc2cc(O)cc(-c3ncc4c(N5CC6CCC(C5)N6)nc(OCC56CCCN5CC(F)C6)nc4c3F)c12 (stereo unspecified) + CC(Nc1ncnc2nc[nH]c12)c1cc2cccc(Cl)c2c(=O)n1-c1ccccc1
- IC50 [3]: 94.1 nM
- IC50 [4]: 93.1 nM
- IC50 [5]: 87.5 nM
- IC50 [6]: 78.9 nM
- IC50 (curve of first compound, second compound 3.16 µM): 52.9 nM
- IC50 (curve of first compound, second compound 10 µM): < 31.6 nM
- viability, T/C [19]: 98.9%
- viability, T/C [20]: 47.3%
- viability, T/C [21]: 19.4%
- viability, T/C [22]: 11.3%
- viability, T/C [23]: 10.3%
- viability, T/C [24]: 9.72%
- viability, T/C [25]: 106%
- viability, T/C [26]: 46.3%
- viability, T/C [27]: 21.2%
- viability, T/C [28]: 13.3%
- viability, T/C [29]: 16.1%
- viability, T/C [30]: 8%
- viability, T/C [31]: 102%
- viability, T/C [32]: 41%
- viability, T/C [33]: 25.5%
- viability, T/C [34]: 20.3%
- viability, T/C [35]: 14.3%
- viability, T/C [36]: 11.2%
- viability, T/C [37]: 93.6%
- viability, T/C [38]: 38%
- viability, T/C [39]: 18%
- viability, T/C [40]: 19.6%
- viability, T/C [41]: 11%
- viability, T/C [42]: 6.62%
- viability, T/C (second compound 3.16 µM, first compound 0.0316 µM): 68.6%
- viability, T/C (second compound 3.16 µM, first compound 0.1 µM): 26.3%
- viability, T/C (second compound 3.16 µM, first compound 0.316 µM): 14.9%
- viability, T/C (second compound 3.16 µM, first compound 1 µM): 12.1%
- viability, T/C (second compound 3.16 µM, first compound 3.16 µM): 7.19%
- viability, T/C (second compound 3.16 µM, first compound 10 µM): 4.96%
- viability, T/C (second compound 10 µM, first compound 0.0316 µM): 31.9%
- viability, T/C (second compound 10 µM, first compound 0.1 µM): 12.6%
- viability, T/C (second compound 10 µM, first compound 0.316 µM): 8.73%
- viability, T/C (second compound 10 µM, first compound 1 µM): 6.7%
- viability, T/C (second compound 10 µM, first compound 3.16 µM): 4.26%
- viability, T/C (second compound 10 µM, first compound 10 µM): 4.02%

Compound: CC1(C)CCC(Nc2ncc(C(F)(F)F)c(-c3c[nH]c4c(P(C)(C)=O)c(C#N)ccc34)n2)CN1 (stereo unspecified) + COc1c(OCCCN2CCOCC2)ccc2c3n(c(=NC(=O)c4cnc(N)nc4)nc12)CCN3
- IC50 [1]: 3590 nM
- IC50 [2]: 1230 nM
- IC50 [3]: < 31.6 nM
- IC50 [4]: < 31.6 nM
- IC50 [5]: < 31.6 nM
- IC50 [6]: < 31.6 nM
- viability, T/C [7]: 64.8%
- viability, T/C [8]: 57.4%
- viability, T/C [9]: 52%
- viability, T/C [10]: 55.4%
- viability, T/C [11]: 56.2%
- viability, T/C [12]: 0.33%
- viability, T/C [13]: 71.5%
- viability, T/C [14]: 54.7%
- viability, T/C [15]: 50.8%
- viability, T/C [16]: 54.1%
- viability, T/C [17]: 40.6%
- viability, T/C [18]: 0.85%
- viability, T/C [19]: 37.3%
- viability, T/C [20]: 36.6%
- viability, T/C [21]: 26.8%
- viability, T/C [22]: 25.9%
- viability, T/C [23]: 14.5%
- viability, T/C [24]: 1.27%
- viability, T/C [25]: 7.6%
- viability, T/C [26]: 10.5%
- viability, T/C [27]: 7.54%
- viability, T/C [28]: 6.56%
- viability, T/C [29]: 5.27%
- viability, T/C [30]: 1.02%
- viability, T/C [31]: 2.73%
- viability, T/C [32]: 3.91%
- viability, T/C [33]: 3.66%
- viability, T/C [34]: 3.38%
- viability, T/C [35]: 1.31%
- viability, T/C [36]: 0.34%
- viability, T/C [37]: 2.08%
- viability, T/C [38]: 1.57%
- viability, T/C [39]: 1.5%
- viability, T/C [40]: 1.26%
- viability, T/C [41]: 1.04%
- viability, T/C [42]: 0.42%

The next lines start with results.

- IC50 [1]: 1080 nM
- IC50 [2]: 502 nM
- IC50 [3]: < 31.6 nM
- IC50 [4]: < 31.6 nM
- IC50 [5]: < 31.6 nM
- IC50 [6]: < 31.6 nM
Compound: Cn1nccc1Nc1nccc(-c2ccn(C(CO)c3ccc(Cl)c(F)c3)c(=O)c2)n1 (stereo unspecified) + COc1c(OCCCN2CCOCC2)ccc2c3n(c(=NC(=O)c4cnc(N)nc4)nc12)CCN3
- viability, T/C [7]: 109%
- viability, T/C [8]: 107%
- viability, T/C [9]: 89.2%
- viability, T/C [10]: 51.6%
- viability, T/C [11]: 24.3%
- viability, T/C [12]: 15.1%
- viability, T/C [13]: 86.3%
- viability, T/C [14]: 94.6%
- viability, T/C [15]: 57.7%
- viability, T/C [16]: 32.6%
- viability, T/C [17]: 14.7%
- viability, T/C [18]: 5.46%
- viability, T/C [19]: 47.2%
- viability, T/C [20]: 34.6%
- viability, T/C [21]: 18.4%
- viability, T/C [22]: 10.2%
- viability, T/C [23]: 6.79%
- viability, T/C [24]: 8.22%
- viability, T/C [25]: 9.72%
- viability, T/C [26]: 8.17%
- viability, T/C [27]: 6.57%
- viability, T/C [28]: 2.91%
- viability, T/C [29]: 2.2%
- viability, T/C [30]: 1.76%
- viability, T/C [31]: 3.78%
- viability, T/C [32]: 6.01%
- viability, T/C [33]: 1.78%
- viability, T/C [34]: 1.08%
- viability, T/C [35]: 1.43%
- viability, T/C [36]: 0.17%
- viability, T/C [37]: 2.33%
- viability, T/C [38]: 2.25%
- viability, T/C [39]: 0.33%
- viability, T/C [40]: 0.28%
- viability, T/C [41]: 0.15%
- viability, T/C [42]: 0.27%

- IC50 [1]: 224 nM
- IC50 [2]: 225 nM
- IC50 [3]: 46.8 nM
- IC50 [4]: < 31.6 nM
- IC50 [5]: < 31.6 nM
- IC50 [6]: < 31.6 nM
Compound: Cn1ncc(Cl)c1-c1cc(C(=O)NC(CN)Cc2cccc(F)c2)sc1Cl (stereo unspecified) + COc1c(OCCCN2CCOCC2)ccc2c3n(c(=NC(=O)c4cnc(N)nc4)nc12)CCN3
- viability, T/C [7]: 93%
- viability, T/C [8]: 63.4%
- viability, T/C [9]: 42.9%
- viability, T/C [10]: 30.4%
- viability, T/C [11]: 20.4%
- viability, T/C [12]: 9.36%
- viability, T/C [13]: 86.4%
- viability, T/C [14]: 71.8%
- viability, T/C [15]: 38.2%
- viability, T/C [16]: 23.1%
- viability, T/C [17]: 14.4%
- viability, T/C [18]: 4.57%
- viability, T/C [19]: 58.3%
- viability, T/C [20]: 33.6%
- viability, T/C [21]: 23.5%
- viability, T/C [22]: 13.7%
- viability, T/C [23]: 10.4%
- viability, T/C [24]: 2.08%
- viability, T/C [25]: 21.1%
- viability, T/C [26]: 13.3%
- viability, T/C [27]: 8.18%
- viability, T/C [28]: 6.79%
- viability, T/C [29]: 6.13%
- viability, T/C [30]: 1.39%
- viability, T/C [31]: 4.19%
- viability, T/C [32]: 4.53%
- viability, T/C [33]: 2.93%
- viability, T/C [34]: 5.08%
- viability, T/C [35]: 3.95%
- viability, T/C [36]: 0.44%
- viability, T/C [37]: 2.43%
- viability, T/C [38]: 1.6%
- viability, T/C [39]: 2.02%
- viability, T/C [40]: 1.95%
- viability, T/C [41]: 1.4%
- viability, T/C [42]: 0.21%
